Experimental findings from patent US20140023611A1 (priority 2010, published 2014) are described below.

Bounds are passed on as bounds.

This experiment has as its target T1, rat NaP2b (SLC34A2) (Rattus norvegicus, UniProt Q9JJ09).
T1 construct: host or cells: HEK293
T1 sequence (Q9JJ09 1-695): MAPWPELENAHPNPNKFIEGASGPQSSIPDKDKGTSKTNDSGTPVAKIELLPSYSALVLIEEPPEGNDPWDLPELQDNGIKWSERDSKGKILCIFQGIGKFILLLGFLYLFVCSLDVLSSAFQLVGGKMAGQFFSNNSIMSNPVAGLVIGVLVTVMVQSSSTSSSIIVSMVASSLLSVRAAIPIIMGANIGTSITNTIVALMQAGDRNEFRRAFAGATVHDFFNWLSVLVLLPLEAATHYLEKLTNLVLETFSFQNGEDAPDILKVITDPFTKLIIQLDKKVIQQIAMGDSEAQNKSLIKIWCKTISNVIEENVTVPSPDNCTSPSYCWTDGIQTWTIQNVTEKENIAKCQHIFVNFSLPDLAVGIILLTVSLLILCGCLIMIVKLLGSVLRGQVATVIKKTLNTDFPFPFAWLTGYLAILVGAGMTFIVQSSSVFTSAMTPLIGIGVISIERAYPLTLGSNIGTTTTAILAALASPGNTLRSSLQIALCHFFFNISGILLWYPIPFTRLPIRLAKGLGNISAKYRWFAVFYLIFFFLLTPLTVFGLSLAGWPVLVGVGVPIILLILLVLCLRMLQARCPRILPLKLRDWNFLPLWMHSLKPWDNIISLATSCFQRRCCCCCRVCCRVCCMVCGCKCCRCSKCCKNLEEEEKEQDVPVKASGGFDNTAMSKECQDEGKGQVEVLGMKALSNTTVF
Nature of the experiment: Inhibition of NaP2b-mediated Pi (33P) uptake in transfected HEK293 cells, rat NaP2b. The class given is cell-based. As to conditions: 33P Pi uptake, 0.1 mM phosphate, value given as pIC50 range. An outline of the steps: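 The cells transiently expressed NaP2b after Lipofectamine transfection. Each compound was run in duplicate over twelve concentrations, 0.1 nM–30 uM.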
Usually IC50 stands for the concentration that gives 50% inhibition. The compound `COc1cc(C(=O)Nc2ccc(N3CCCCC3)cc2-c2cc(C(=O)NCc3cccc(C(F)(F)F)c3)ccn2)cc(C(=O)N(C)CCN2CCOCC2)c1` [Example 11.4, 5-Methoxy-N1-methyl-N1-(2-morpholinoethyl)-N3-(4-(piperidin-1-yl)-2-(4-((3-(trifluoromethyl)benzyl)carbamoyl)pyridin-2-yl)phenyl)isophthalamide] had an IC50 of 10 to 31.6 µM.
Still for that read-out and setting: the figure for `Cc1ccc(CNc2cc(-c3cc(N4CCCCC4)ccc3NC(=O)c3cccc(CSCCC(=O)O)c3)ncn2)cc1C` [Example 3.4, 3-((3-((2-(6-((3,4-Dimethylbenzyl)amino)pyrimidin-4-yl)-4-(piperidin-1-yl)phenyl)carbamoyl)benzyl)thio)propanoic acid] is 10 to 31.6 µM.
The same measure, in the same setting: the value for `O=C(O)CCSCc1cccc(C(=O)Nc2ccc(N3CCCCC3)cc2-c2cc(C(=O)NCc3ccc(-n4cccn4)cc3)ccn2)c1` [Example 79, 3-(3-((2-(4-((4-(1H-Pyrazol-1-yl)benzyl)carbamoyl)pyridin-2-yl)-4-(piperidin-1-yl)phenyl)carbamoyl)benzylthio)propanoic acid] was 10 to 31.6 µM.
The same measure, in the same setting: the figure for `COCCN(CCOC)CCN(C)C(=O)c1cccc(C(=O)Nc2ccc(N3CCCCC3)cc2-c2cc(C(=O)N[C@H]3CCCc4ccccc43)ccn2)c1` [Example 217, (S)—N1-(2-(bis(2-methoxyethyl)amino)ethyl)-N1-methyl-N3-(4-(piperidin-1-yl)-2-(4-(1,2,3,4-tetrahydronaphthalen-1-ylcarbamoyl)pyridin-2-yl)phenyl)isophthalamide] is under 1 µM; for `O=C(NCCOCCO)c1cccc(C(=O)Nc2ccc(N3CCCCC3)cc2-c2cc(NCc3cccc(C(F)(F)F)c3)ncn2)c1` [Example 64, N1-(2-(2-Hydroxyethoxy)ethyl)-N3-(4-(piperidin-1-yl)-2-(6-((3-(trifluoromethyl)benzyl)amino)pyrimidin-4-yl)phenyl)isophthalamide] it is 10 to 31.6 µM; for `CCN(CC)c1ccc(NC(=O)c2cccc(CCCOCCOCCOCC[N+](CC)(CC)CC)c2)c(-c2cc(C(=O)NCc3cccc(C(F)(F)F)c3)ccn2)c1` [Example 330, 2-(2-(2-(3-(3-(4-(diethylamino)-2-(4-(3-(trifluoromethyl)benzylcarbamoyl)pyridin-2-yl)phenylcarbamoyl)phenyl)propoxy)ethoxy)ethoxy)-N,N,N-triethylethanaminium] it is 1 to 7.94 µM.
Compound `O=C(O)CCSCc1cccc(C(=O)Nc2ccc(N3CCCCC3)cc2-c2cc(C(=O)NCc3ccccc3C(F)(F)F)ccn2)c1` [Example 1.48] showed a 50% inhibitory concentration (IC50) of 1 to 7.94 µM.
In turn, `CCN(CC)c1ccc(NC(=O)c2cccc(CCCOCCOCCOCCOCCNC(=O)C34CC5CC(CC(C5)C3)C4)c2)c(-c2cc(C(=O)N[C@H]3CCCc4ccccc43)ccn2)c1` [Example 322] gave an IC50 of 1 to 7.94 µM.
`CN(CCN1CCOCC1)C(=O)c1cccc(C(=O)Nc2ccc(N3CCCCC3)cc2-c2cc(SCc3ccccc3)ccn2)c1` [Example 109] gave an IC50 of 1 to 7.94 µM.
On the same count and under the same terms, the figure for `O=C(O)CCSCc1cccc(C(=O)Nc2ccc(N3CCCCC3)cc2-c2cc(C(=O)NCc3ccc4c(c3)OCCCO4)ccn2)c1` [Example 1.22] is 1 to 7.94 µM; for `COCCNC(=O)C1CCCN(Cc2cccc(C(=O)Nc3ccc(N4CCCCC4)cc3-c3cc(C(=O)NCc4cccc(C(F)(F)F)c4)ccn3)c2)C1` (stereo in doubt) [Example 12.1, (S)-2-(2-(3-((3-((2-Methoxyethyl)carbamoyl)piperidin-1-yl)methyl)benzamido)-5-(piperidin-1-yl)phenyl)-N-(3-(trifluoromethyl)benzyl)isonicotinamide] it is 1 to 7.94 µM; for `O=C(O)CCSCc1cccc(C(=O)Nc2ccc(N3CCCCC3)cc2-c2cc(C(=O)NCc3ccc(C(F)(F)F)nc3)ccn2)c1` [Example 1.2, 3-((3-((4-(Piperidin-1-yl)-2-(4-(((6-(trifluoromethyl)pyridin-3-yl)methyl)carbamoyl)pyridin-2-yl)phenyl)carbamoyl)benzyl)thio)propanoic acid] it is 10 to 31.6 µM.
The same measure, in the same setting: the figure for `O=C(O)CCSCc1cccc(C(=O)Nc2ccc(N3CCCCC3)cc2-c2cc(C(=O)NCCc3cccc(C(F)(F)F)c3)ccn2)c1` [Example 1.5] is 1 to 7.94 µM; for `CCN(CC)c1ccc(NC(=O)c2cccc(CCCOCCOCCOCCOCCNC(=O)c3cc[nH]n3)c2)c(-c2cc(C(=O)N[C@H]3CCCc4ccccc43)ccn2)c1` [Example 323] it is under 1 µM.
The same measure, in the same setting: the value for `O=C(O)CCSCc1cccc(C(=O)Nc2ccc(N3CCCCC3)cc2-c2cc(C(=O)Nc3ccc4ncsc4c3)ccn2)c1` [Example 1.20] was 10 to 31.6 µM; that for `O=C(O)Cc1cccc(SCc2cccc(C(=O)Nc3ccc(Cl)cc3-c3cc(C(=O)NCc4cccc(C(F)(F)F)c4)ccn3)c2)c1` [Example 119] was under 1 µM; that for `O=C(O)CCSCc1cccc(C(=O)Nc2ccc(N3CCCCC3)cc2-c2cc(C(=O)NCc3cccc(C(F)(F)F)c3F)ccn2)c1` [Example 1.31] was 1 to 7.94 µM.
For `CCN(CC)c1ccc(NC(=O)c2ccc(CCCOCCOCCOCC[N+]34CCC(CC3)CC4)cc2)c(-c2cc(C(=O)NCc3cccc(C(F)(F)F)c3)ccn2)c1` [Example 331, 1-(2-(2-(2-(3-(4-(4-(diethylamino)-2-(4-(3-(trifluoromethyl)benzylcarbamoyl)pyridin-2-yl)phenylcarbamoyl)phenyl)propoxy)ethoxy)ethoxy)ethyl)-1-azonia-bicyclo[2.2.2]octane], the “pIC50 range for rat Nap2b” value is 5.1-6.0.
Compound `COc1cc(C(F)(F)F)ccc1CNC(=O)c1ccnc(-c2cc(N3CCCCC3)ccc2NC(=O)c2cccc(C(=O)N(C)CCN3CCOCC3)c2)c1` [Example 121, N1-(2-(4-((2-methoxy-4-(trifluoromethyl)benzyl)carbamoyl)pyridin-2-yl)-4-(piperidin-1-yl)phenyl)-N3-methyl-N3-(2-morpholinoethyl)isophthalamide] showed an IC50 of 1 to 7.94 µM.
Same read-out and setting: the value for `COCCNC(=O)[C@@H]1CCCN(C(=O)c2cccc(C(=O)Nc3ccc(N4CCCCC4)cc3-c3cc(C(=O)NCc4cccc(C(F)(F)F)c4)ccn3)c2)C1` [Example 4.15, (R)-2-(2-(3-(3-((2-Methoxyethyl)carbamoyl)piperidine-1-carbonyl)benzamido)-5-(piperidin-1-yl)phenyl)-N-(3-(trifluoromethyl)benzyl)isonicotinamide] was 1 to 7.94 µM.
On the same count and under the same terms, the figure for `Cc1ccc(C(=O)Nc2ccnc(-c3cc(N4CCCCC4)ccc3NC(=O)c3cccc(CSCCC(=O)O)c3)c2)cc1C` [Example 74, 3-((3-((2-(4-(3,4-Dimethylbenzamido)pyridin-2-yl)-4-(piperidin-1-yl)phenyl)carbamoyl)benzyl)thio)propanoic acid] is 10 to 31.6 µM; for `CN(CCN1CCOCC1)C(=O)c1cccc(C(=O)Nc2ccc(C(F)(F)F)cc2-c2cc(C(=O)N[C@H]3CCCc4ccccc43)ccn2)c1` [Example 130, (S)—N1-methyl-N1-(2-morpholinoethyl)-N3-(2-(4-(1,2,3,4-tetrahydronaphthalen-1-ylcarbamoyl)pyridin-2-yl)-4-(trifluoromethyl)phenyl)isophthalamide] it is 1 to 7.94 µM; for `COc1c(C(=O)Nc2ccc(N3CCCCC3)cc2-c2cc(C(=O)NCc3cccc(C(F)(F)F)c3)ccn2)cccc1C(=O)N(C)CCN1CCOCC1` [Example 11.3, 2-Methoxy-N1-methyl-N1-(2-morpholinoethyl)-N3-(4-(piperidin-1-yl)-2-(4-((3-(trifluoromethyl)benzyl)carbamoyl)pyridin-2-yl)phenyl)isophthalamide] it is 10 to 31.6 µM.
With `CN(CCN1CCOCC1)C(=O)c1cccc(C(=O)Nc2ccc(N3CCCCC3)cc2-c2cc(C(=O)NCc3cccc(C(F)(F)F)c3)ccn2)n1` [Example 11.1, N2-Methyl-N2-(2-morpholinoethyl)-N6-(4-(piperidin-1-yl)-2-(4-((3-(trifluoromethyl)benzyl)carbamoyl)pyridin-2-yl)phenyl)pyridine-2,6-dicarboxamide], the IC50 was 1 to 7.94 µM.
Still for that read-out and setting: the value for `O=C(O)CCSCc1cccc(C(=O)Nc2ccc(N3CCCCC3)cc2-c2cc(C(=O)NCc3ccc(F)c(OC(F)(F)F)c3)ccn2)c1` [Example 1.25] was 1 to 7.94 µM; that for `CCCCCCCNC(=O)c1ccnc(-c2cc(N3CCCCC3)ccc2NC(=O)c2cccc(CSCCC(=O)O)c2)c1` [Example 1.6] was 1 to 7.94 µM; that for `CN(CCN1CCN(S(C)(=O)=O)CC1)C(=O)c1cccc(C(=O)Nc2ccc(N3CCCCC3)cc2-c2cc(C(=O)NCc3cccc(C(F)(F)F)c3)ccn2)c1` [Example 83, N1-methyl-N1-(2-(4-(methylsulfonyl)piperazin-1-yl)ethyl)-N3-(4-(piperidin-1-yl)-2-(4-(3-(trifluoromethyl)benzylcarbamoyl)pyridin-2-yl)phenyl)isophthalamide] was 1 to 7.94 µM.
The same measure, in the same setting: the value for `O=C(O)CCSCc1cccc(C(=O)Nc2ccc(N3CCCCC3)cc2-c2cc(NCc3cccc(C(F)(F)F)c3)ccn2)c1` [Example 69, 3-((3-((4-(Piperidin-1-yl)-2-(4-((3-(trifluoromethyl)benzyl)amino)pyridin-2-yl)phenyl)carbamoyl)benzyl)thio)propanoic acid] was 10 to 31.6 µM.
